Positions of bridges follow the written chain, without caps; N, C: chain ends. Non-standard residues stand in square brackets, D forms with d. Residues, ends and D or L forms follow the SMILES beside them. Phe(4-NH2) = Nc1ccc(C[C@H](N)C(=O)O)cc1; Gly(octyl) = CCCCCCCC[C@H](N)C(=O)O; Aoc(2) = CCCCCC[C@H](N)C(=O)O; Orn = NCCC[C@H](N)C(=O)O; Aze = O=C(O)[C@@H]1CCN1; Sar = CNCC(=O)O
Tests used:
Assay type in all cases: cell-based
[1] = target: T1, human V1a receptor (Homo sapiens, UniProt P37288); assay: Calcium flux assay (FLIPR), agonist mode, CHO cells expressing human V1a; conditions: for EC50: CHO cells stably expressing human V1a, calcium flux, read-out: hV1a EC50; for hV1a efficacy (%): maximum response normalized to endogenous full agonist = 100%
T1 construct: expressed in transfected cells
T1 sequence (P37288 whole entry): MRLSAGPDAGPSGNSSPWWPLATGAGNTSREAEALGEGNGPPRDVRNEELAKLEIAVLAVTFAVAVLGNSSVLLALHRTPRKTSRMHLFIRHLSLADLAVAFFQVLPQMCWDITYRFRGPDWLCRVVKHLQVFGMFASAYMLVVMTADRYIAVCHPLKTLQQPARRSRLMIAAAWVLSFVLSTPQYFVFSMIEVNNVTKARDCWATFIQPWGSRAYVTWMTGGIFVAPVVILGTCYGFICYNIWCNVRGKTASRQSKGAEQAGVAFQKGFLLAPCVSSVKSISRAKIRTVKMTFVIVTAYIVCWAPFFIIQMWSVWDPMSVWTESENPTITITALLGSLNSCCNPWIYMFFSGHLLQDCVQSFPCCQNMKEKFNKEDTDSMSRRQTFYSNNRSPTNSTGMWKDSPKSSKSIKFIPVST
Text: (§1) Chines Hamster Ovary (CHO) cells were transfected with expression plasmids encoding either the human V1a, the human Oxytocin (OTR) or the humanV2 receptor, the later in combination with the chimeric Gqs5 G protein to redirect the signal to Calcium flux. Stable cells were cloned by limiting dilution to yield monoclonal cell lines expressing either human V1a, human V2+Gqs5 or human OTR receptors and selected based on functional responses detected on a fluorometric imaging plate reader (FLIPR) detecting Calcium flux in the cell after receptor activation. The stable cell lines were grown in F-12 K Nutrient Mixture (Kaighns Modification), containing 10% foetal bovine serum (FBS), 1% penicillin-streptomycin, 1% L-glutamate, 200 ug/ml Geneticin at 37° C. in a 10% CO2 incubator at 95% humidity.
(§2) On the afternoon before the assay, cells were plated at a density of 50,000 cells/well into black 96 well plates with clear bottoms to allow cell inspection and fluorescence measurements from the bottom of each well. The density of cells was sufficient to yield a confluent monolayer the next day. Hanks balanced salt solution, without phenol red, containing 20 mM HEPES (pH 7.3) and 2.5 mM probenecid (assay buffer) was prepared fresh for each experiment. Compound dilutions were made using a Beckman Biomek 2000 laboratory automation workstation, in assay buffer containing 1% DMSO. The dye-loading buffer consisted of a final concentration of 2 μM Fluo-4-AM (dissolved in DMSO and pluronic acid) in assay buffer. The existing culture media was removed from the wells and 100 μl of the dye-loading buffer was added to each well and incubated for approximately 60 min at 37° C. in a 5% CO2 incubator at 95% humidity. Once dye-loaded, the cells were washed thoroughly on an Embla cell washer with the assay buffer to remove any unincorporated dye. Exactly 100 μl assay buffer was left in each well.
(§3) Each 96 well plate containing dye-loaded cells was placed into the FLIPR machine and the laser intensity set to a suitable level to detect low basal fluorescence. To test compounds as agonists, 25 μl diluted compound was added to the plate 10 seconds into the fluorescent measurements and fluorescent response was recorded for 5 minutes. The fluorescence data was normalized to the endogenous full agonist dose-response set at 100% for the maximum response and 0% for the minimum. Each agonist concentration-response curve was constructed using a four parameter logistic equation with Microsoft Excel XLFit as follows: Y=Minimum+((Maximum−Minimum)/(1+10^(Log EC50-X)nH)), where y is the % normalized fluorescence, minimum is the minimum y, maximum is the maximum y, log EC50 is the log10 concentration which produces 50% of the maximum induced fluorescence, x is the log10 of the concentration of the agonist compound and H is the slope of the curve (the Hill Coefficient). The maximum value gives the efficacy of the agonist test compound in percentage. The concentration of agonist that produced a half-maximal response is represented by the EC50 value, the logarithm of which yielded the pEC50 value.

[2] = target: T2, human Oxytocin (OTR) receptor (Homo sapiens, UniProt P30559); assay: Calcium flux assay (FLIPR), agonist mode, CHO cells expressing human OTR; conditions: for EC50: CHO cells stably expressing human OTR, calcium flux, read-out: hOT EC50; for hOT efficacy (%) / Emax: maximum response normalized to endogenous full agonist = 100%; for Emax: CHO, read-out: hOT efficacy (%)
T2 construct: expressed in transfected cells
T2 sequence (P30559 1-389): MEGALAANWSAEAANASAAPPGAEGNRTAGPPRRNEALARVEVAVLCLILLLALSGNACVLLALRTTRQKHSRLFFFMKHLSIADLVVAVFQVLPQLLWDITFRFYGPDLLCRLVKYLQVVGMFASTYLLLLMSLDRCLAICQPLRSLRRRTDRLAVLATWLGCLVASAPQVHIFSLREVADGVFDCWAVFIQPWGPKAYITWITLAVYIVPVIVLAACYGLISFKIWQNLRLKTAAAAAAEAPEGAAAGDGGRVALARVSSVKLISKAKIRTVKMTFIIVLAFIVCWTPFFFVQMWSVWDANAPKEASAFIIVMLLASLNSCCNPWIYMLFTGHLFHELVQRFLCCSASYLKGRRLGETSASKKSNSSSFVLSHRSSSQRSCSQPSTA
Text: as §1, with “activation.” for “activation. The stable cell lines were grown in F-12 K Nutrient Mixture (Kaighns Modification), containing 10% foetal bovine serum (FBS), 1% penicillin-streptomycin, 1% L-glutamate, 200 ug/ml Geneticin at 37° C. in a 10% CO2 incubator at 95% humidity.”
as §2, with “The existing culture media was removed from the wells and 100 μl of the dye-loading buffer was added to each well and incubated for approximately 60 min at 37° C. in a 5% CO2 incubator at 95% humidity.” left out
Each 96 well plate containing dye-loaded cells was placed into the FLIPR machine and the laser intensity set to a suitable level to detect low basal fluorescence. To test compounds as agonists, 25 μl diluted compound was added to the plate 10 seconds into the fluorescent measurements and fluorescent response was recorded for 5 minutes. The fluorescence data was normalized to the endogenous full agonist dose-response set at 100% for the maximum response and 0% for the minimum. […] The concentration of agonist that produced a half-maximal response is represented by the EC50 value, the logarithm of which yielded the pEC50 value.

[3] = target: T3, human V2 receptor (Homo sapiens, UniProt P30518); assay: Calcium flux assay (FLIPR), agonist mode, CHO cells expressing human V2 + Gqs5; conditions: CHO; maximum response normalized to endogenous full agonist = 100%; read-out: hV2 efficacy (%)
T3 construct: expressed in transfected cells
T3 sequence (P30518 whole entry): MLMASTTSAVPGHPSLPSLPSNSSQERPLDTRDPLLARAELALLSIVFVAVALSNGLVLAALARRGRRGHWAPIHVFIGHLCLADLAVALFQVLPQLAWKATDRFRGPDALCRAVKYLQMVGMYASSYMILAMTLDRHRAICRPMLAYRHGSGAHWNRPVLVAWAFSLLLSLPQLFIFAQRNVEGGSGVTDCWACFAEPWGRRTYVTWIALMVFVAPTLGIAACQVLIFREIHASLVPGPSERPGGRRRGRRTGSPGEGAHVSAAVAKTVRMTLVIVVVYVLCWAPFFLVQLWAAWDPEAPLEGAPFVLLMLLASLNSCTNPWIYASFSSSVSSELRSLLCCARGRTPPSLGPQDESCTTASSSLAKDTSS
Text: as §1, §2, §3

SMILES | EC50 [1] [nM] | EC50 [2] [nM] | hOT efficacy (%) [2] [%] | hV1a efficacy (%) [1] [%] | Emax [2] [%] | Emax [3] [%]
CC[C@H](C)[C@@H]1NC(=O)[C@H](Cc2ccc(O)cc2)NC(=O)CNC(=O)CC[C@@H](C(=O)NCC(=O)N[C@@H](CC(C)C)C(=O)NCC(N)=O)NC(=O)[C@H](CC(N)=O)NC(=O)[C@H](CCC(N)=O)NC1=O [Example 6] (GYIQNEGLG-NH2; lactam N-6) | > 27000 | 11 | 95 |  |  | 
CC[C@H](C)[C@@H]1NC(=O)[C@H](Cc2ccc(N)cc2)NC(=O)CNC(=O)CC[C@@H](C(=O)N2CCC[C@H]2C(=O)N[C@@H](CC(C)C)C(=O)NCC(N)=O)NC(=O)[C@H](CC(N)=O)NC(=O)[C@H](CCC(N)=O)NC1=O [Example 10] (G[Phe(4-NH2)]IQNEPLG-NH2; lactam N-6) | > 2700 | 17 | 91 |  |  | 
CC[C@H](C)[C@@H]1NC(=O)[C@H](Cc2ccc(O)cc2)NC(=O)CNC(=O)CC[C@@H](C(=O)N2CCC[C@H]2C(=O)N[C@@H](Cc2ccc(N)cc2)C(=O)NCC(N)=O)NC(=O)[C@H](CC(N)=O)NC(=O)[C@H](CCC(N)=O)NC1=O [Example 11] (GYIQNEP[Phe(4-NH2)]G-NH2; lactam N-6) | > 27000 | 11 | 94 |  |  | 
CC[C@H](C)[C@@H]1NC(=O)[C@H](Cc2ccc(O)cc2)NC(=O)CNC(=O)CC[C@@H](C(=O)N2CCC[C@H]2C(=O)N[C@H](CC(C)C)C(=O)NCC(N)=O)NC(=O)[C@H](CC(N)=O)NC(=O)[C@H](CCC(N)=O)NC1=O [Example 15] (GYIQNEP[dL]G-NH2; lactam N-6) | > 12000 | 52 | 102 |  |  | 
CC[C@H](C)[C@@H]1NC(=O)[C@H](Cc2ccc(O)cc2)NC(=O)CNC(=O)CC[C@@H](C(=O)N[C@@H](C)C(=O)N[C@@H](C)C(=O)NCC(N)=O)NC(=O)[C@H](CC(N)=O)NC(=O)[C@H](CCC(N)=O)NC1=O [Example 16] (GYIQNEAAG-NH2; lactam N-6) | > 12000 | 30 | 105 |  |  | 
CC[C@H](C)[C@@H]1NC(=O)[C@H](Cc2ccc(O)cc2)NC(=O)CNC(=O)CC[C@@H](C(=O)N[C@@H](C)C(=O)N[C@@H](CC(C)C)C(=O)NCC(N)=O)NC(=O)[C@H](CC(N)=O)NC(=O)[C@H](CCC(N)=O)NC1=O [Example 17] (GYIQNEALG-NH2; lactam N-6) | > 12000 | 45 | 92 |  |  | 
CC[C@H](C)[C@@H]1NC(=O)[C@H](Cc2ccc(O)cc2)NC(=O)CNC(=O)CC[C@@H](C(=O)N2CCC[C@H]2C(=O)N[C@@H](C)C(=O)NCC(N)=O)NC(=O)[C@H](CC(N)=O)NC(=O)[C@H](CCC(N)=O)NC1=O [Example 18] (GYIQNEPAG-NH2; lactam N-6) | > 12000 | 24 | 91 |  |  | 
CC[C@H](C)[C@@H]1NC(=O)[C@H](Cc2ccc(O)cc2)NC(=O)CNC(=O)CC[C@@H](C(=O)N2CCC[C@H]2C(=O)N[C@H](C(=O)NCC(N)=O)C(C)C)NC(=O)[C@H](CC(N)=O)NC(=O)[C@H](CCC(N)=O)NC1=O [Example 19] (GYIQNEPVG-NH2; lactam N-6) | 127 | 1.5 |  | 33 | 122 | 
CC[C@H](C)[C@@H]1NC(=O)[C@H](Cc2ccc(O)cc2)NC(=O)CNC(=O)CC[C@@H](C(=O)N2CCC[C@H]2C(=O)N[C@@H](CC(C)C)C(=O)NCC(N)=O)NC(=O)[C@H](CC(N)=O)NC(=O)[C@H](CCCN)NC1=O [Example 20] (GYI[Orn]NEPLG-NH2; lactam N-6) | > 12000 | 40 |  |  |  | 
CC[C@H](C)[C@@H]1NC(=O)[C@H](Cc2ccc(O)cc2)NC(=O)CNC(=O)CC[C@@H](C(=O)N2CCC[C@H]2C(=O)N[C@@H](CCCCN)C(=O)NCC(N)=O)NC(=O)[C@H](CC(N)=O)NC(=O)[C@H](CCC(N)=O)NC1=O [Example 21] (GYIQNEPKG-NH2; lactam N-6) | 32 | 12 | 105 | 55 |  | 
CC[C@H](C)[C@@H]1NC(=O)[C@H](Cc2ccc(O)cc2)NC(=O)CNC(=O)CC[C@@H](C(=O)N(C)CC(=O)N[C@@H](CCSC)C(=O)NCC(N)=O)NC(=O)[C@H](CC(N)=O)NC(=O)[C@H](CCC(N)=O)NC1=O [Example 35] (GYIQNE[Sar]MG-NH2; lactam N-6) |  |  |  |  | 111 | 104
CC[C@H](C)[C@@H]1NC(=O)[C@H](Cc2ccc(O)cc2)NC(=O)CNC(=O)CC[C@@H](C(=O)N2CC[C@H]2C(=O)N[C@@H](CC(C)C)C(=O)NCC(N)=O)NC(=O)[C@H](CC(N)=O)NC(=O)[C@H](CCC(N)=O)NC1=O [Example 50] (GYIQNE[Aze]LG-NH2; lactam N-6) | > 27000 | 3.6 |  |  | 99 | 
CCCCCC[C@H](NC(=O)CN(C)C(=O)[C@@H]1CCC(=O)NCC(=O)N[C@@H](Cc2ccc(O)cc2)C(=O)N[C@@H]([C@@H](C)CC)C(=O)N[C@@H](CCC(N)=O)C(=O)N[C@@H](CC(N)=O)C(=O)N1)C(=O)NCC(N)=O [Example 53] (GYIQNE[Sar][Aoc(2)]G-NH2; lactam N-6) |  | 1.1 |  |  | 127 | 
CCCCCCCC[C@H](NC(=O)CN(C)C(=O)[C@@H]1CCC(=O)NCC(=O)N[C@@H](Cc2ccc(O)cc2)C(=O)N[C@@H]([C@@H](C)CC)C(=O)N[C@@H](CCC(N)=O)C(=O)N[C@@H](CC(N)=O)C(=O)N1)C(=O)NCC(N)=O [Example 54] (GYIQNE[Sar][Gly(octyl)]G-NH2; lactam N-6) |  | 0.8 |  |  | 134 | 
CC[C@H](C)[C@@H]1NC(=O)[C@H](Cc2ccc(O)cc2)NC(=O)CNC(=O)CC[C@@H](C(=O)N(C)CC(=O)N[C@@H](CC(C)C)C(=O)NCC(N)=O)NC(=O)[C@H](CC(N)=O)NC(=O)[C@H](C(C)C)NC1=O [Example 55] (GYIVNE[Sar]LG-NH2; lactam N-6) |  | 20 | 104 |  |  | 

Source: patent publication US9868766B2, “Peptides as oxytocin agonists” (Hoffmann-La Roche Inc., priority 2012, dated 2018)
